Assay results published in patent publication US5811442A, “Pharmaceutical compositions for the treatment of conditions associated with decreased blood flow” (priority 1997, dated 1998).
Read-outs that look alike come from different tables or passages of the source.

How the values were obtained:
ganglionic receptors = experiment: Determination of Interaction with Ganglia (maximal activation of ganglionic receptors); format: cell-based; conditions: percentage of the maximal activation induced by (S)-(-)-nicotine
Description: Typical ganglionic receptors include α3β4 receptor subtypes, (i.e., non-β2 containing receptor subtypes).
Determination of Interaction with Ganglia
The ganglionic tissues employed are representative of those which are believed absent of receptor subtypes containing β2-subunits.

[1] = test system: β2-containing nicotinic acetylcholine receptor subtypes; experiment: Determination of Dopamine Release (synaptosomes); format: cell-based; conditions: for EC50: read-out: Dopamine Release EC50
Description: Determination of Dopamine Release
Reported EC50 is expressed in nM and Emax represents the amount released relative to nicotine.

muscle receptors = molecular target: T1, muscle receptors (Homo sapiens, UniProt P02708+P07510+Q07001); experiment: cell-based; format: cell-based; conditions: for Muscle Effect (Emax): percentage of the maximal activation induced by (S)-(-)-nicotine; for Emax: read-out: Muscle Effect (Emax)
T1 construct: endogenous in cells
T1 sequence (P02708 21-457): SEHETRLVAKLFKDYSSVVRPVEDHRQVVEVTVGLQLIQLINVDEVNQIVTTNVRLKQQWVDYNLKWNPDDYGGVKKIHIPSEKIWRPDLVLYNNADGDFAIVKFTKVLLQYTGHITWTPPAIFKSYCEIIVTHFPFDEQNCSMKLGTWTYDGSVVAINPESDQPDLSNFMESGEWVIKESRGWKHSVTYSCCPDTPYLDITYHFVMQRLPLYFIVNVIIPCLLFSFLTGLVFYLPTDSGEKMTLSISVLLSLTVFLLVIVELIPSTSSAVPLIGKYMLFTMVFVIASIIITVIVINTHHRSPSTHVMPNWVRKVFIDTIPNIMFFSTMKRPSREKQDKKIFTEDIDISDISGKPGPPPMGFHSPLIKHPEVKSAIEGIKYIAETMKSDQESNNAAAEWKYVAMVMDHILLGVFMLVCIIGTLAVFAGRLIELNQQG
T1 sequence (P07510 23-517): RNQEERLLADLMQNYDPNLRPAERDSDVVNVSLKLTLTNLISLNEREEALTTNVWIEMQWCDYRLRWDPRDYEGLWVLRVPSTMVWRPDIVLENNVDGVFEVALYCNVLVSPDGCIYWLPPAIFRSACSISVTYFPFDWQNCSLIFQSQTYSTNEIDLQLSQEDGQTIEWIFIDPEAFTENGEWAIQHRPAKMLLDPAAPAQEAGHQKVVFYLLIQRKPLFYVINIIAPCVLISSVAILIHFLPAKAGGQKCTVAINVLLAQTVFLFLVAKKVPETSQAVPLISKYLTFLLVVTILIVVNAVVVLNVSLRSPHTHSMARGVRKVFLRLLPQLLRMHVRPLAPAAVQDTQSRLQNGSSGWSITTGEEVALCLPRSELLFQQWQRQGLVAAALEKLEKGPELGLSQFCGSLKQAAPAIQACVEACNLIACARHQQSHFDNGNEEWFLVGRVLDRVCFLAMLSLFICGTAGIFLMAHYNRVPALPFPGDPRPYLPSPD
T1 sequence (Q07001 22-517): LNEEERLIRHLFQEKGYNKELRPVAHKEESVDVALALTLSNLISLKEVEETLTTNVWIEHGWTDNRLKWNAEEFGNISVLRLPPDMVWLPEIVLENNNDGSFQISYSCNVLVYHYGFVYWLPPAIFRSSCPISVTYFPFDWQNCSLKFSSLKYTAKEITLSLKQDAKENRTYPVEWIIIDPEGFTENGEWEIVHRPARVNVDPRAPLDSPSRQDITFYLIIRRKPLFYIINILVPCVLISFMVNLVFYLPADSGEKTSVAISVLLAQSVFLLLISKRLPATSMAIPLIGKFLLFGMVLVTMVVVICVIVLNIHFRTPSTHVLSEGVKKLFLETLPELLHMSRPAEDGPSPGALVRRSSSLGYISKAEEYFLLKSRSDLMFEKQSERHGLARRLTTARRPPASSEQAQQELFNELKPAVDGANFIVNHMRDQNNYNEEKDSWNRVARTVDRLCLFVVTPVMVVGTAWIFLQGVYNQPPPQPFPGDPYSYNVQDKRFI
Description: Determination of Interaction with Muscle
The muscle tissues employed are representative of those which are believed absent of receptor subtypes containing β2-subunits.

α4β2 receptor subtypes = molecular target: T2, α4β2 receptor subtypes (Rattus norvegicus, UniProt P09483+P12390); experiment: Determination of Binding to Relevant Receptor Sites; conditions: calculated from IC50 values using the method of Cheng et al.
T2 construct: from tissue
T2 sequence (P09483 31-630): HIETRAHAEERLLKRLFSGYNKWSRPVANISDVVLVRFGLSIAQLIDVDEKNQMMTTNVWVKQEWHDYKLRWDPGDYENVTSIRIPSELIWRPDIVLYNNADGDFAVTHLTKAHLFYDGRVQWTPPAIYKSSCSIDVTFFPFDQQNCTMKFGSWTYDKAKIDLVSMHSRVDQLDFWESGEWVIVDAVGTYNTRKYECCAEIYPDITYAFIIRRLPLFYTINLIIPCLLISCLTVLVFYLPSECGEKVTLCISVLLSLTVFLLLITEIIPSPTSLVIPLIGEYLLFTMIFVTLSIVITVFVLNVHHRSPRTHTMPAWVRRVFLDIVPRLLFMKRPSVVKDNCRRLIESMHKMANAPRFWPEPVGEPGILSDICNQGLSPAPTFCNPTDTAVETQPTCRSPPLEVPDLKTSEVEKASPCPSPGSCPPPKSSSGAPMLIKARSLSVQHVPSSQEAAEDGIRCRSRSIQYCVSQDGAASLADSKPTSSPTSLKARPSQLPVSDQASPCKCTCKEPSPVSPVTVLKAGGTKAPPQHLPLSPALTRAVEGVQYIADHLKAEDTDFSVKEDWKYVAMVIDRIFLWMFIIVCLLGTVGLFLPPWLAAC
T2 sequence (P12390 25-500): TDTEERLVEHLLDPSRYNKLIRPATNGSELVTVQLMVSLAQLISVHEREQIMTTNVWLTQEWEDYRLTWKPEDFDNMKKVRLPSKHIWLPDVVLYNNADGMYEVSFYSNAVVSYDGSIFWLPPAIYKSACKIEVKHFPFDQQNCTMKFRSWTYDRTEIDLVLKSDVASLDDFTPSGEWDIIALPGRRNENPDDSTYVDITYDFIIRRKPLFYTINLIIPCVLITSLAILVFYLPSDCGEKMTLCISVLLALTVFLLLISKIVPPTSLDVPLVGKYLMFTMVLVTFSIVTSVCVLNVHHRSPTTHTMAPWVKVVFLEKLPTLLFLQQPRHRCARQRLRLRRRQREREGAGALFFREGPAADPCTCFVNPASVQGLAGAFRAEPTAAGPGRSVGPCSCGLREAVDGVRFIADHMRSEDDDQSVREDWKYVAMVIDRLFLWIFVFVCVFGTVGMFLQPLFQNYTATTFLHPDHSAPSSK
Description: Receptor binding constants provide a measure of the ability of the compound to bind to relevant receptor sites of certain cells of the patient.
Determination of Binding to Relevant Receptor Sites

[2] = test system: nicotinic acetylcholine receptor subtypes including β2-subunits; conditions: reported; cited from earlier work
[3] = read-out: Dopamine Release Emax, percentage of release obtained with (S)-(-)-nicotine concentration resulting in maximal effects
[4] = read-out: Dopamine Release Emax

SMILES	Ganglion Effect (Emax) (ganglionic receptors) [% nicotine]	EC50 [1] [nM]	Emax [1, 3] [%]	Muscle Effect (Emax) (muscle receptors) [% nicotine]	EC50 ([1]; dopamine release) [nM]	Ki (α4β2 receptor subtypes) [nM]	Dopamine Release Emax ([1]; percentage of release obtained with (S)-(-)-nicotine concentration resulting in maximal effects) [%]	Emax (muscle receptors) [%]	Emax [1, 4] [%]	affinity to bind to nicotinic acetylcholine receptor subtypes (in words) [2]
CNCC/C=C/c1cncc(-c2ccccc2)c1 [Sample No. 3, (E)-N-Methyl-4-[3-(5-phenylpyridin)yl]-3-buten-1-amine]	0	> 100000	> 160	8	–	–	–	–	–	–
NCC/C=C/c1cccnc1.O=C(O)/C=C/C(=O)O.O=C(O)/C=C/C(=O)O [Sample No. 18, (E)-4-(3-pyridinyl)-3-buten-1-amine difumarate]	23	5020	81	15	–	–	–	–	–	–
CCOc1cncc(/C=C/CCNC)c1 [Sample No. 19, (E)-N-Methyl-4-[3-(5-ethoxypyridin)yl]-3-buten-1-amine sesquifumarate]	< 15	–	–	3	276	–	–	–	–	–
CNCC/C=C/c1cncc(COC)c1 [Sample No. 17, (E)-N-Methyl-4-[3-(5-methoxymethylpyridin)yl]-3-buten-1-amine]	0	16000	46	13	–	–	–	–	–	–
CCOc1cncc(/C=C/CCNC)c1 [Sample No. 9, (E)-N-methyl-4-[3-(5-ethoxypyridin)yl]-3-butene-1-amine]	0	–	–	0	287	9	124	–	–	–
CNCC/C=C/c1cncnc1 [Sample No. 11, (E)-N-methyl-4-(5-pyrimidinyl)-3-buten-1-amine]	0	–	–	–	–	–	–	12	–	–
CNCC/C=C/c1cncc(N)c1 [Sample No. 5, (E)-N-methyl-4-[3-(5-aminopyridin)yl]-3-buten-1-amine]	4	2000	85	4	–	–	–	–	–	–
CNCC/C=C/c1ccc(C)nc1 [Sample No. 1, (E)-N-methyl-4[3-(6-methylpyridin)yl]-3-buten-1-amine monofumarate]	4	10000	–	–	–	–	–	–	115	–
CNCC/C=C/c1cncc(Oc2ccccc2)c1 [Sample No. 15, (E)-N-Methyl-4-[3-(5-phenoxypyridin)yl]-3-buten-1-amine]	< 15	114	14	5	–	–	–	–	–	–
CNCC/C=C/c1cccnc1 [Sample No. 14, (E)-metanicotine monofumarate]	–	1020	–	–	–	–	–	–	90	–
CNCC/C=C/c1cncc(Br)c1 [Sample No. 7, (E-N-methyl-4-[3-5-bromopyridin)yl]-3-buten-1-amine monofumarate]	11	2400	107	–	–	79	–	8	–	–
CNCC/C=C/c1cncc(OCc2ccccc2)c1 [Sample No. 6, (E)-N-Methyl-4-[3-(5-benzyloxypyridin)yl]-3-buten-1-amine]	0	4000	33	12	–	–	–	–	–	–
CNCC/C=C\c1cccnc1 [Sample No. 12, (Z)-metanicotine monofumarate]	–	8310	–	–	–	–	–	–	96	–
COc1cncc(/C=C/CCN)c1 [Sample No. 4, (E)-4-[3-(5-methoxypyridin)yl]-3-buten-1-amine monofumarate]	0	3800	–	–	–	–	–	–	–	–
NCC/C=C/c1cncc(Br)c1 [Sample No. 13, (E)-4-[3-(5-Bromopyridin)yl]-3-buten-1-amine Hemifumarate]	0	49	29	–	–	707	–	5	–	–
CNCC/C=C/c1cncc(OC)c1 [Sample No. 8, (E)-N-methyl-4-[3-(5-methoxypyridin)yl]-3-butene-1-amine]	0	191	103	0	–	10	–	–	–	–
CNC(C)C/C=C/c1cccnc1 (stereo not shown) [Sample No. 10, (E)-N-methyl-5-(3-pyridinyl)-4-penten-2-amine]	6	21400	182	4	–	82	–	–	–	–
CNCC/C=C/c1cncc(OC(C)C)c1 [Sample No. 16, (E)-N-Methyl-4-[3-(5-isopropoxypyridin)yl]-3-buten-1-amine]	< 15	51	57	8	–	–	–	–	–	–
CN1CCC[C@H]1c1cccnc1 [Sample No. C-1, (S)-(-)-nicotine, reference compound]	100	–	–	–	–	–	–	–	100	demonstrated affinity to bind to numerous nicotinic acetylcholine receptor subtypes including β2-subunits
